Values after ≈ are worked out from the molar mass of the structure shown.
Tests used:
Assay type in all cases: functional
Staphylococcus aureus [1] = experiment: Antibacterial activity against methicillin-susceptible Staphylococcus aureus by CLSI M7-A7 broth microdilution method
Staphylococcus aureus [2] = experiment: Antibacterial activity against methicillin-resistant Staphylococcus aureus by CLSI M7-A7 broth microdilution method
Staphylococcus aureus [3] = experiment: Antibacterial activity against coagulase-negative and oxacillin-susceptible Staphylococcus aureus by CLSI M7-A7 broth microdilution method
Staphylococcus aureus [4] = experiment: Antibacterial activity against coagulase-negative and oxacillin-resistant Staphylococcus aureus by CLSI M7-A7 broth microdilution method
Streptococcus pneumoniae [5] = experiment: Antibacterial activity against penicillin-susceptible Streptococcus pneumoniae by CLSI M7-A7 broth microdilution method
Streptococcus pneumoniae [6] = experiment: Antibacterial activity against penicillin-resistant Streptococcus pneumoniae by CLSI M7-A7 broth microdilution method
Streptococcus pyogenes [7] = experiment: Antibacterial activity against erythromycin-susceptible Streptococcus pyogenes by CLSI M7-A7 broth microdilution method
Streptococcus pyogenes [8] = experiment: Antibacterial activity against erythromycin-nonsusceptible Streptococcus pyogenes by CLSI M7-A7 broth microdilution method
Streptococcus agalactiae [9] = experiment: Antibacterial activity against erythromycin-susceptible Streptococcus agalactiae by CLSI M7-A7 broth microdilution method
Streptococcus agalactiae [10] = experiment: Antibacterial activity against erythromycin-nonsusceptible Streptococcus agalactiae by CLSI M7-A7 broth microdilution method
Streptococcus viridans [11] = experiment: Antibacterial activity against penicillin-susceptible Streptococcus viridans by CLSI M7-A7 broth microdilution method
Streptococcus viridans [12] = experiment: Antibacterial activity against penicillin-nonsusceptible Streptococcus viridans by CLSI M7-A7 broth microdilution method
Enterococcus faecalis [13] = experiment: Antibacterial activity against vancomycin-susceptible Enterococcus faecalis by CLSI M7-A7 broth microdilution method
Enterococcus faecalis [14] = experiment: Antibacterial activity against vancomycin-resistant Enterococcus faecalis by CLSI M7-A7 broth microdilution method
Enterococcus faecium = experiment: Antibacterial activity against vancomycin-resistant Enterococcus faecium by CLSI M7-A7 broth microdilution method
Enterobacteriaceae [15] = experiment: Antibacterial activity against ceftazidime-susceptible Enterobacteriaceae by CLSI M7-A7 broth microdilution method
Enterobacteriaceae [16] = experiment: Antibacterial activity against ceftazidime-nonsusceptible Enterobacteriaceae by CLSI M7-A7 broth microdilution method
Citrobacter freundii [17] = experiment: Antibacterial activity against ceftazidime-susceptible Citrobacter freundii by CLSI M7-A7 broth microdilution method
Citrobacter freundii [18] = experiment: Antibacterial activity against ceftazidime-nonsusceptible Citrobacter freundii by CLSI M7-A7 broth microdilution method
Enterobacter cloacae [19] = experiment: Antibacterial activity against ceftazidime-susceptible Enterobacter cloacae by CLSI M7-A7 broth microdilution method
Enterobacter cloacae [20] = experiment: Antibacterial activity against ceftazidime-nonsusceptible Enterobacter cloacae by CLSI M7-A7 broth microdilution method
Escherichia coli [21] = experiment: Antibacterial activity against ceftazidime-susceptible Escherichia coli by CLSI M7-A7 broth microdilution method
Escherichia coli [22] = experiment: Antibacterial activity against ceftazidime-nonsusceptible Escherichia coli by CLSI M7-A7 broth microdilution method
Klebsiella pneumoniae [23] = experiment: Antibacterial activity against ceftazidime-susceptible Klebsiella pneumoniae by CLSI M7-A7 broth microdilution method
Klebsiella pneumoniae [24] = experiment: Antibacterial activity against ceftazidime-nonsusceptible Klebsiella pneumoniae by CLSI M7-A7 broth microdilution method
Morganella morganii = experiment: Antibacterial activity against ceftazidime-susceptible Morganella morganii by CLSI M7-A7 broth microdilution method
Proteus mirabilis = experiment: Antibacterial activity against ceftazidime-susceptible Proteus mirabilis by CLSI M7-A7 broth microdilution method
Serratia marcescens = experiment: Antibacterial activity against ceftazidime-susceptible Serratia marcescens by CLSI M7-A7 broth microdilution method
Acinetobacter [25] = experiment: Antibacterial activity against multidrug-resistant Acinetobacter by CLSI M7-A7 broth microdilution method
Acinetobacter [26] = experiment: Antibacterial activity against imipenem-susceptible Acinetobacter by CLSI M7-A7 broth microdilution method
Haemophilus influenzae [27] = experiment: Antibacterial activity against beta lactamase-negative Haemophilus influenzae by CLSI M7-A7 broth microdilution method
Haemophilus influenzae [28] = experiment: Antibacterial activity against beta lactamase-positive Haemophilus influenzae by CLSI M7-A7 broth microdilution method
Moraxella catarrhalis = experiment: Antibacterial activity against beta lactamase-positive Moraxella catarrhalis by CLSI M7-A7 broth microdilution method
Pasteurella multocida = experiment: Antibacterial activity against Pasteurella multocida by CLSI M7-A7 broth microdilution method
Providencia sp. = experiment: Antibacterial activity against ceftazidime-susceptible Providencia sp. by CLSI M7-A7 broth microdilution method
Staphylococcus aureus [29] = experiment: Antibacterial activity against methicillin-susceptible Staphylococcus aureus assessed as susceptible isolates by CLSI M7-A7 broth microdilution method
Staphylococcus aureus [30] = experiment: Antibacterial activity against methicillin-susceptible Staphylococcus aureus assessed as resistant isolates by CLSI M7-A7 broth microdilution method
Staphylococcus aureus [31] = experiment: Antibacterial activity against methicillin-resistant Staphylococcus aureus assessed as susceptible isolates by CLSI M7-A7 broth microdilution method
Staphylococcus aureus [32] = experiment: Antibacterial activity against methicillin-resistant Staphylococcus aureus assessed as resistant isolates by CLSI M7-A7 broth microdilution method
Staphylococcus aureus [33] = experiment: Antibacterial activity against coagulase-negative and oxacillin-susceptible Staphylococcus aureus assessed as susceptible isolates by CLSI M7-A7 broth microdilution method
Staphylococcus aureus [34] = experiment: Antibacterial activity against coagulase-negative and oxacillin-susceptible Staphylococcus aureus assessed as resistant isolates by CLSI M7-A7 broth microdilution method
Staphylococcus aureus [35] = experiment: Antibacterial activity against coagulase-negative and oxacillin-resistant Staphylococcus aureus assessed as susceptible isolates by CLSI M7-A7 broth microdilution method
Staphylococcus aureus [36] = experiment: Antibacterial activity against coagulase-negative and oxacillin-resistant Staphylococcus aureus assessed as resistant isolates by CLSI M7-A7 broth microdilution method

CCO/N=C(\C(=O)N[C@@H]1C(=O)N2C(C(=O)[O-])=C(Sc3nc(-c4cc[n+](C)cc4)cs3)CS[C@H]12)c1nsc(NP(=O)(O)O)n1 [CEFTAROLINE FOSAMIL]
MIC50 (Staphylococcus aureus [1]): 0.25 µg/mL (≈ 0.365 µM) | MIC90 (Staphylococcus aureus [1]): 0.25 µg/mL (≈ 0.365 µM) | MIC50 (Staphylococcus aureus [2]): 0.5 µg/mL (≈ 0.73 µM) | MIC90 (Staphylococcus aureus [2]): 1 µg/mL (≈ 1.46 µM) | MIC50 (Staphylococcus aureus [3]): 0.06 µg/mL (≈ 0.0876 µM) | MIC90 (Staphylococcus aureus [3]): 0.12 µg/mL (≈ 0.175 µM) | MIC50 (Staphylococcus aureus [4]): 0.5 µg/mL (≈ 0.73 µM) | MIC90 (Staphylococcus aureus [4]): 0.5 µg/mL (≈ 0.73 µM) | MIC (Streptococcus pneumoniae [5]): ≤ 0.008 µg/mL | MIC50 (Streptococcus pneumoniae [5]): ≤ 0.008 µg/mL | MIC90 (Streptococcus pneumoniae [5]): 0.015 µg/mL (≈ 0.0219 µM) | MIC50 (Streptococcus pneumoniae [6]): 0.12 µg/mL (≈ 0.175 µM) | MIC90 (Streptococcus pneumoniae [6]): 0.12 µg/mL (≈ 0.175 µM) | MIC (Streptococcus pyogenes [7]): ≤ 0.008 µg/mL | MIC50 (Streptococcus pyogenes [7]): ≤ 0.008 µg/mL | MIC90 (Streptococcus pyogenes [7]): ≤ 0.008 µg/mL | MIC (Streptococcus pyogenes [8]): ≤ 0.008 µg/mL | MIC50 (Streptococcus pyogenes [8]): ≤ 0.008 µg/mL | MIC90 (Streptococcus pyogenes [8]): 0.015 µg/mL (≈ 0.0219 µM) | MIC50 (Streptococcus agalactiae [9]): 0.015 µg/mL (≈ 0.0219 µM) | MIC90 (Streptococcus agalactiae [9]): 0.015 µg/mL (≈ 0.0219 µM) | MIC50 (Streptococcus agalactiae [10]): 0.015 µg/mL (≈ 0.0219 µM) | MIC90 (Streptococcus agalactiae [10]): 0.015 µg/mL (≈ 0.0219 µM) | MIC (Streptococcus viridans [11]): ≤ 0.008 µg/mL | MIC50 (Streptococcus viridans [11]): ≤ 0.008 µg/mL | MIC90 (Streptococcus viridans [11]): 0.03 µg/mL (≈ 0.0438 µM) | MIC50 (Streptococcus viridans [12]): 0.12 µg/mL (≈ 0.175 µM) | MIC90 (Streptococcus viridans [12]): 0.5 µg/mL (≈ 0.73 µM) | MIC50 (Enterococcus faecalis [13]): 2 µg/mL (≈ 2.92 µM) | MIC90 (Enterococcus faecalis [13]): 4 µg/mL (≈ 5.84 µM) | MIC50 (Enterococcus faecalis [14]): 4 µg/mL (≈ 5.84 µM) | MIC90 (Enterococcus faecalis [14]): 4 µg/mL (≈ 5.84 µM) | MIC50 (Enterococcus faecium): > 16 µg/mL | MIC90 (Enterococcus faecium): > 16 µg/mL | MIC50 (Enterobacteriaceae [15]): 0.06 µg/mL (≈ 0.0876 µM) | MIC90 (Enterobacteriaceae [15]): 1 µg/mL (≈ 1.46 µM) | MIC50 (Enterobacteriaceae [16]): > 16 µg/mL | MIC90 (Enterobacteriaceae [16]): > 16 µg/mL | MIC50 (Citrobacter freundii [17]): 0.12 µg/mL (≈ 0.175 µM) | MIC90 (Citrobacter freundii [17]): 0.25 µg/mL (≈ 0.365 µM) | MIC50 (Citrobacter freundii [18]): > 16 µg/mL | MIC90 (Citrobacter freundii [18]): > 16 µg/mL | MIC50 (Enterobacter cloacae [19]): 0.12 µg/mL (≈ 0.175 µM) | MIC90 (Enterobacter cloacae [19]): 1 µg/mL (≈ 1.46 µM) | MIC50 (Enterobacter cloacae [20]): > 16 µg/mL | MIC90 (Enterobacter cloacae [20]): > 16 µg/mL | MIC50 (Escherichia coli [21]): 0.06 µg/mL (≈ 0.0876 µM) | MIC90 (Escherichia coli [21]): 0.5 µg/mL (≈ 0.73 µM) | MIC50 (Escherichia coli [22]): > 16 µg/mL | MIC90 (Escherichia coli [22]): > 16 µg/mL | MIC50 (Klebsiella pneumoniae [23]): 0.06 µg/mL (≈ 0.0876 µM) | MIC90 (Klebsiella pneumoniae [23]): 0.25 µg/mL (≈ 0.365 µM) | MIC50 (Klebsiella pneumoniae [24]): > 16 µg/mL | MIC90 (Klebsiella pneumoniae [24]): > 16 µg/mL | MIC50 (Morganella morganii): 0.06 µg/mL (≈ 0.0876 µM) | MIC90 (Morganella morganii): 16 µg/mL (≈ 23.4 µM) | MIC50 (Proteus mirabilis): 0.06 µg/mL (≈ 0.0876 µM) | MIC90 (Proteus mirabilis): 4 µg/mL (≈ 5.84 µM) | MIC50 (Serratia marcescens): 0.5 µg/mL (≈ 0.73 µM) | MIC90 (Serratia marcescens): 16 µg/mL (≈ 23.4 µM) | MIC50 (Acinetobacter [25]): > 16 µg/mL | MIC50 (Acinetobacter [26]): 4 µg/mL (≈ 5.84 µM) | MIC90 (Acinetobacter [26]): > 16 µg/mL | MIC (Haemophilus influenzae [27]): ≤ 0.008 µg/mL | MIC50 (Haemophilus influenzae [27]): ≤ 0.008 µg/mL | MIC90 (Haemophilus influenzae [27]): 0.015 µg/mL (≈ 0.0219 µM) | MIC50 (Haemophilus influenzae [28]): 0.015 µg/mL (≈ 0.0219 µM) | MIC90 (Haemophilus influenzae [28]): 0.03 µg/mL (≈ 0.0438 µM) | MIC50 (Moraxella catarrhalis): 0.06 µg/mL (≈ 0.0876 µM) | MIC90 (Moraxella catarrhalis): 0.25 µg/mL (≈ 0.365 µM) | MIC (Pasteurella multocida): ≤ 0.008 µg/mL | MIC50 (Pasteurella multocida): ≤ 0.008 µg/mL | MIC90 (Pasteurella multocida): 0.06 µg/mL (≈ 0.0876 µM) | MIC50 (Providencia sp.): 1 µg/mL (≈ 1.46 µM) | MIC90 (Providencia sp.): > 16 µg/mL

Cc1onc(-c2ccccc2)c1C(=O)N[C@@H]1C(=O)N2[C@@H]1SC(C)(C)[C@@H]2C(=O)O [OXACILLIN]
MIC50 (Staphylococcus aureus [1]): 0.25 µg/mL (≈ 0.623 µM) | MIC90 (Staphylococcus aureus [1]): 0.5 µg/mL (≈ 1.25 µM) | Activity (Staphylococcus aureus [29]): 100% | Activity (Staphylococcus aureus [30]): 0% | MIC50 (Staphylococcus aureus [2]): > 8 µg/mL | MIC90 (Staphylococcus aureus [2]): > 8 µg/mL | Activity (Staphylococcus aureus [31]): 0% | Activity (Staphylococcus aureus [32]): 100% | MIC50 (Staphylococcus aureus [3]): 0.12 µg/mL (≈ 0.299 µM) | MIC90 (Staphylococcus aureus [3]): 0.25 µg/mL (≈ 0.623 µM) | Activity (Staphylococcus aureus [33]): 100% | Activity (Staphylococcus aureus [34]): 0% | MIC50 (Staphylococcus aureus [4]): > 8 µg/mL | MIC90 (Staphylococcus aureus [4]): > 8 µg/mL | Activity (Staphylococcus aureus [35]): 0% | Activity (Staphylococcus aureus [36]): 100% | MIC50 (Enterococcus faecalis [13]): > 8 µg/mL | MIC90 (Enterococcus faecalis [13]): > 8 µg/mL | MIC50 (Enterococcus faecalis [14]): > 8 µg/mL | MIC90 (Enterococcus faecalis [14]): > 8 µg/mL | MIC (Enterococcus faecium): > 8 µg/mL | MIC50 (Enterococcus faecium): > 8 µg/mL | MIC90 (Enterococcus faecium): > 8 µg/mL | MIC50 (Moraxella catarrhalis): 4 µg/mL (≈ 9.96 µM) | MIC90 (Moraxella catarrhalis): > 8 µg/mL

— ChEMBL document CHEMBL1671626, “In vitro profiling of ceftaroline against a collection of recent bacterial clinical isolates from across the United States” (2008)
